Measured values as given in patent US4225579A, “Means and method for improving defenses against caries” (priority 1979, dated 1980).
Residues, ends and D or L forms follow the SMILES beside them.

Tests used:
Type in all cases: cell-based
salivary sediment = assay: pH fall and rise with individual peptides of 2-4 amino acid units in salivary sediment-glucose mixture; conditions: for pH rising to / pH drop to: salivary sediment 16.7% (v/v), glucose 2.8 mM, peptide 3.3 mM; for pH rising to: measured through the fourth hour; for pH drop to: pH starts slightly above 7
Description: Four sets of three 10×75 mm test tubes were provided with 0.2 ml of 8.4 mM (millimolar) of aqueous glucose solution. Set I was provided with 0.2 ml of pooled supernatant saliva. […] Set IV was provided with 0.2 ml of distilled water. […] The concentration of the peptide in the combined composition was 3.3 mM. […] The pH values are as follows: Extensive testing of individual peptides of 2-4 amino acid units as could reasonably be obtained or synthesized was done. The tests were carried out under the same conditions as Sets I-IV. The salivary sediment was present in an amount of 16.7% (v/v), glucose 2.8 mM and the peptide 3.3 mM in the final composition. Duplicate runs without peptide were run parallel to the others as a double check. […] An effective pH rise factor begins to reverse the fall within the first hour. Measurement continues through the fourth hour.

oral bacteria [1] = assay: pH of glucose solution incubated with oral bacteria suspension, Sets I-IV; conditions: 37° C., 3.3 mM
oral bacteria [2] = assay: as above; conditions: 37° C.; for pH at 0 minutes: 0 time when bacteria added, test substance 3.3 mM in combined composition
Description: Experiments were performed in vitro using supernatant saliva. The saliva was obtained from random donors whose salivary secretions were paraffin block stimulated. The saliva donations were pooled before and after sediment removal.
Four sets of three 10×75 mm test tubes were provided with 0.2 ml of 8.4 mM (millimolar) of aqueous glucose solution. Set I was provided with 0.2 ml of pooled supernatant saliva. Set II was provided with 0.2 ml of 9.9 mM of the peptide glycine-glycine-arginine. Set III was provided with 0.2 ml of 9.9 mM arginine. Set IV was provided with 0.2 ml of distilled water. Sequentially 0.2 ml of a 50:50 aqueous suspension of oral bacteria was added to each test tube. The concentration of the peptide in the combined composition was 3.3 mM. The prepared test tubes were kept at 37° C. in a water bath. pH readings were taken at 0 time when the bacteria was added and at 15, 30, 45, 60, 90, 120, 180 and 240 minutes.

Row | Structure (SMILES) | effectiveness as pH rise factor (salivary sediment) | pH rising to (salivary sediment) | pH drop to (salivary sediment) | pH at 39 minutes (oral bacteria [1]) | pH at 0 minutes (oral bacteria [2]) | pH at 15 minutes (oral bacteria [2]; 3.3 mM) | pH at 45 minutes (oral bacteria [2]; 3.3 mM) | pH at 60 minutes (oral bacteria [2]; 3.3 mM) | pH at 90 minutes (oral bacteria [2]; 3.3 mM) | pH at 120 minutes (oral bacteria [2]; 3.3 mM) | pH at 180 minutes (oral bacteria [2]; 3.3 mM) | pH at 240 minutes (oral bacteria [2]; 3.3 mM) | pH at 39 minutes (oral bacteria [2]; 39 minutes, 3.3 mM)
1 | N=C(N)NCCC[C@H](NC(=O)[C@H](CCCCN)NC(=O)CNC(=O)CN)C(=O)O [Gly-Gly-Lys-Arg, H-glycine-glycine-lysine-arginine-OH] (H-GGKR-OH) | proven effective | 8.4 | 6.4 | – | – | – | – | – | – | – | – | – | –
2 | N=C(N)NCCC[C@H](N)C(=O)O [Set III, arginine, reference compound] | – | – | – | 5.4 | 7.3 | 5.8 | 5.2 | 4.9 | 5.0 | 5.0 | 5.3 | 5.8 | –
3 | N=C(N)NCCC[C@H](N)C(=O)O.NCC(=O)O.NCC(=O)O [Gly-Gly-Arg, glycine-glycine-arginine] | – | 7.5 | 5.5 | – | 7.4 | 6.8 | 6.4 | 6.6 | 6.6 | 6.7 | 7.2 | 7.6 | 6.6
